Assay results taken from patent US20040162263A1, “Pharmaceutical formulations targeting specific regions of the gastrointesinal tract” (priority 2002, published 2004).
≈ marks a conversion by molar mass, not a printed value. Where “and” joins values, the source holds several entries; their conditions need not be identical. Identical values can stand only once.

Columns and labels:
[1] = Physico-chemical properties of decitabine (solubility, stability); format: physicochemical
[2] = Pharmacokinetics of decitabine in IVAP rabbit model; format: in vivo, rabbits
Protocol: Decitabine was administered intravenously to IVAP rabbits (n=3) at three doses: 0.75, 1.5 and 2.5 mg/kg. It was also administered at 2.5mg/kg orally and through previously implanted intestinal and vascular access ports in the portal vein (PV), upper small intestine (USI), lower small intestine (LSI) and colon (IC). All routes received the same simple formulation of raw compound dissolved in cold saline. Care was taken to insure doses were delivered immediately (less than 15 minutes) after dissolving the powder and that the liquid formulation was kept on ice up to the time of administration. Blood samples were taken simultaneously from the median auricular artery and through a port in the portal vein at predetermined time points. Plasma was separated and kept frozen at −70° C. until shipped to Xenobiotic Laboratories for analysis.
Pharmacokinetic parameters were calculated using non-compartmental models with the Winnonlin v3.1 program.

[3] = IC 2.5 mg/kg, only two successful doses, individual values
[4] = IV 0.75 mg/kg, 2 min, 0.75 mg/kg
[5] = IV 0.75 mg/kg, 15 min, 0.75 mg/kg
[6] = IV 0.75 mg/kg, 60 min, 0.75 mg/kg
[7] = IV 0.75 mg/kg, 120 min, 0.75 mg/kg
[8] = IV 0.75 mg/kg, 240 min, 0.75 mg/kg
[9] = IV 1.5 mg/kg, 15 min, 1.5 mg/kg
[10] = IV 1.5 mg/kg, 60 min, 1.5 mg/kg
[11] = IV 1.5 mg/kg, 120 min, 1.5 mg/kg
[12] = IV 1.5 mg/kg, 180 min, 1.5 mg/kg

**Q.** Which “moisture at equilibrium of monohydrate formed on exposure to humidity” value [1] does the source give for `Nc1ncn([C@H]2C[C@H](O)[C@@H](CO)O2)c(=O)n1` [decitabine, 5-aza-2′-deoxycytidine] here?
**A.** The value was 7%.

**Q.** What about the solubility in alcohol [1] of the same compound?
**A.** The solubility in alcohol was “highly soluble”.

**Q.** What about the solid remains stable ([1]; 15-30° C., not exposed to humidity) of the same compound?
**A.** The solid remains stable was 36 months.

**Q.** What about the “degradation rate in aqueous environment” value ([1]; pH 7 and 2-8° C.) of the same compound?
**A.** Its value is “about 0.7 %/hr”.

**Q.** What about the “degradation rate in aqueous environment” value ([1]; pH 7 and 25° C.) of the same compound?
**A.** The value was 2.5 %/hr.

**Q.** What about the solubility ([1]; water) of the same compound?
**A.** The solubility was roughly 25 mg/mL (≈ 110 mM).

**Q.** And the “hepatic first pass effect loss ((AUCIV−AUCPV/AUCIV)×100)” value ([2]; 2.5 mg/kg into portal vein)?
**A.** Its value is 32%.

**Q.** What about the “Individual systemic Bioavailability” value ([2]; IC 2.5 mg/kg) of the same compound?
**A.** Its value is 68.29% and 0.22%.

**Q.** And the “AUC0-inf in Portal Vein” value [2, 3]?
**A.** Its value is 2.98 ng·h/mL and 830 ng·h/mL.

**Q.** What about the “AUC0-inf in Systemic Samples” value [2, 3] of the same compound?
**A.** The value was 2.51 ng·h/mL and 773 ng·h/mL.

**Q.** And the CMAX ([2]; IC 2.5 mg/kg, two individual values)?
**A.** The CMAX was 2.0 ng/mL and 611 ng/mL.

**Q.** And the concentration PV, Mean ([2]; IV 0.75 mg/kg, 2 min)?
**A.** Its concentration PV, Mean is 624 ng/mL.

**Q.** What about the concentration SYS, Mean ([2]; IV 0.75 mg/kg, 2 min) of the same compound?
**A.** The concentration SYS, Mean was 628 ng/mL.

**Q.** What about the concentration PV, individual [2, 4] of the same compound?
**A.** Its concentration PV, individual is 581 ng/mL and 621 ng/mL and 669 ng/mL.

**Q.** What about the concentration SYS, individual [2, 4] of the same compound?
**A.** Its concentration SYS, individual is 666 ng/mL and 615 ng/mL and 603 ng/mL.

**Q.** And the concentration SYS, Mean ([2]; IV 0.75 mg/kg, 5 min)?
**A.** The concentration SYS, Mean was 422 ng/mL.

**Q.** What about the concentration SYS, individual ([2]; IV 0.75 mg/kg, 5 min, 0.75 mg/kg) of the same compound?
**A.** The concentration SYS, individual was 432 ng/mL and 415 ng/mL and 419 ng/mL.

**Q.** What about the concentration PV, Mean ([2]; IV 0.75 mg/kg, 15 min) of the same compound?
**A.** The concentration PV, Mean was 229 ng/mL.

**Q.** And the concentration SYS, Mean ([2]; IV 0.75 mg/kg, 15 min)?
**A.** Its concentration SYS, Mean is 247 ng/mL.

**Q.** And the concentration PV, individual [2, 5]?
**A.** Its concentration PV, individual is 233 ng/mL (2×) and 220 ng/mL.

**Q.** What about the concentration SYS, individual [2, 5] of the same compound?
**A.** The concentration SYS, individual was 257 ng/mL and 233 ng/mL and 250 ng/mL.

**Q.** What about the concentration SYS, Mean ([2]; IV 0.75 mg/kg, 30 min) of the same compound?
**A.** Its concentration SYS, Mean is 177 ng/mL.

**Q.** What about the concentration SYS, individual ([2]; IV 0.75 mg/kg, 30 min) of the same compound?
**A.** The concentration SYS, individual was 177 ng/mL.

**Q.** And the concentration PV, Mean ([2]; IV 0.75 mg/kg, 60 min)?
**A.** Its concentration PV, Mean is 83 ng/mL.

**Q.** And the concentration SYS, Mean ([2]; IV 0.75 mg/kg, 60 min)?
**A.** Its concentration SYS, Mean is 98 ng/mL.

**Q.** And the concentration PV, individual [2, 6]?
**A.** Its concentration PV, individual is 95.1 ng/mL and 65.8 ng/mL and 89.1 ng/mL.

**Q.** What about the concentration SYS, individual [2, 6] of the same compound?
**A.** Its concentration SYS, individual is 102 ng/mL (2×) and 89.1 ng/mL.

**Q.** What about the concentration PV, Mean ([2]; IV 0.75 mg/kg, 120 min) of the same compound?
**A.** Its concentration PV, Mean is 28 ng/mL.

**Q.** And the concentration SYS, Mean ([2]; IV 0.75 mg/kg, 120 min)?
**A.** The concentration SYS, Mean was 39 ng/mL.

**Q.** And the concentration PV, individual [2, 7]?
**A.** The concentration PV, individual was 21.1 ng/mL and 34 ng/mL.

**Q.** What about the concentration SYS, individual [2, 7] of the same compound?
**A.** Its concentration SYS, individual is 40.6 ng/mL and 35.2 ng/mL and 41 ng/mL.

**Q.** What about the concentration PV, Mean ([2]; IV 0.75 mg/kg, 180 min) of the same compound?
**A.** The concentration PV, Mean was 14 ng/mL.

**Q.** And the concentration PV, individual ([2]; IV 0.75 mg/kg, 180 min)?
**A.** The concentration PV, individual was 13.9 ng/mL.

**Q.** What about the concentration SYS, Mean ([2]; IV 0.75 mg/kg, 180 min) of the same compound?
**A.** The concentration SYS, Mean was 15 ng/mL.

**Q.** And the concentration SYS, individual ([2]; IV 0.75 mg/kg, 180 min, 0.75 mg/kg)?
**A.** The concentration SYS, individual was 15 ng/mL and 13.9 ng/mL and 15.7 ng/mL.

**Q.** What about the concentration PV, Mean ([2]; IV 0.75 mg/kg, 240 min) of the same compound?
**A.** Its concentration PV, Mean is 5 ng/mL.

**Q.** What about the concentration SYS, Mean ([2]; IV 0.75 mg/kg, 240 min) of the same compound?
**A.** The concentration SYS, Mean was 6 ng/mL.

**Q.** What about the concentration PV, individual [2, 8] of the same compound?
**A.** The concentration PV, individual was 4.87 ng/mL and 5.76 ng/mL.

**Q.** What about the concentration SYS, individual [2, 8] of the same compound?
**A.** Its concentration SYS, individual is 5.9 ng/mL and 6.21 ng/mL and 6.31 ng/mL.

**Q.** What about the “IV AUC0-inf, individual” value ([2]; IV 0.75 mg/kg, 0.75 mg/kg) of the same compound?
**A.** Its value is 327.37 ng·h/mL and 353.53 ng·h/mL and 354.68 ng·h/mL.

**Q.** And the concentration PV, Mean ([2]; IV 1.5 mg/kg, 2 min)?
**A.** The concentration PV, Mean was 1140 ng/mL.

**Q.** And the concentration SYS, Mean ([2]; IV 1.5 mg/kg, 2 min)?
**A.** The concentration SYS, Mean was 1080 ng/mL.

**Q.** What about the concentration PV, individual ([2]; IV 1.5 mg/kg, 2 min, 1.5 mg/kg) of the same compound?
**A.** Its concentration PV, individual is 1300 ng/mL and 1130 ng/mL and 985 ng/mL.

**Q.** What about the concentration SYS, individual ([2]; IV 1.5 mg/kg, 2 min, 1.5 mg/kg) of the same compound?
**A.** The concentration SYS, individual was 1240 ng/mL and 919 ng/mL.

**Q.** And the concentration PV, Mean ([2]; IV 1.5 mg/kg, 5 min)?
**A.** The concentration PV, Mean was 652 ng/mL.

**Q.** And the concentration PV, individual ([2]; IV 1.5 mg/kg, 5 min)?
**A.** Its concentration PV, individual is 652 ng/mL.

**Q.** And the concentration SYS, Mean ([2]; IV 1.5 mg/kg, 5 min)?
**A.** The concentration SYS, Mean was 735 ng/mL.

**Q.** What about the concentration SYS, individual ([2]; IV 1.5 mg/kg, 5 min, 1.5 mg/kg) of the same compound?
**A.** The concentration SYS, individual was 819 ng/mL and 676 ng/mL and 711 ng/mL.

**Q.** And the concentration PV, Mean ([2]; IV 1.5 mg/kg, 15 min)?
**A.** The concentration PV, Mean was 350 ng/mL.

**Q.** And the concentration SYS, Mean ([2]; IV 1.5 mg/kg, 15 min)?
**A.** The concentration SYS, Mean was 433 ng/mL.

**Q.** And the concentration PV, individual [2, 9]?
**A.** The concentration PV, individual was 352 ng/mL and 301 ng/mL and 397 ng/mL.

**Q.** What about the concentration SYS, individual [2, 9] of the same compound?
**A.** Its concentration SYS, individual is 443 ng/mL and 404 ng/mL and 453 ng/mL.

**Q.** And the concentration PV, Mean ([2]; IV 1.5 mg/kg, 30 min)?
**A.** The concentration PV, Mean was 266 ng/mL.

**Q.** And the concentration PV, individual ([2]; IV 1.5 mg/kg, 30 min)?
**A.** Its concentration PV, individual is 266 ng/mL.

**Q.** And the concentration SYS, Mean ([2]; IV 1.5 mg/kg, 30 min)?
**A.** Its concentration SYS, Mean is 330 ng/mL.

**Q.** What about the concentration SYS, individual ([2]; IV 1.5 mg/kg, 30 min, 1.5 mg/kg) of the same compound?
**A.** The concentration SYS, individual was 355 ng/mL and 304 ng/mL.

**Q.** And the concentration PV, Mean ([2]; IV 1.5 mg/kg, 60 min)?
**A.** Its concentration PV, Mean is 128 ng/mL.

**Q.** And the concentration SYS, Mean ([2]; IV 1.5 mg/kg, 60 min)?
**A.** The concentration SYS, Mean was 156 ng/mL.

**Q.** And the concentration PV, individual [2, 10]?
**A.** The concentration PV, individual was 124 ng/mL and 119 ng/mL and 141 ng/mL.

**Q.** What about the concentration SYS, individual [2, 10] of the same compound?
**A.** The concentration SYS, individual was 149 ng/mL and 148 ng/mL and 171 ng/mL.

**Q.** What about the concentration PV, Mean ([2]; IV 1.5 mg/kg, 120 min) of the same compound?
**A.** The concentration PV, Mean was 59 ng/mL.

**Q.** And the concentration SYS, Mean ([2]; IV 1.5 mg/kg, 120 min)?
**A.** Its concentration SYS, Mean is 63 ng/mL.

**Q.** And the concentration PV, individual [2, 11]?
**A.** Its concentration PV, individual is 60 ng/mL and 57.2 ng/mL and 58.8 ng/mL.

**Q.** What about the concentration SYS, individual [2, 11] of the same compound?
**A.** Its concentration SYS, individual is 62.6 ng/mL and 64.9 ng/mL and 60.3 ng/mL.

**Q.** And the concentration PV, Mean ([2]; IV 1.5 mg/kg, 180 min)?
**A.** Its concentration PV, Mean is 22 ng/mL.

**Q.** What about the concentration SYS, Mean ([2]; IV 1.5 mg/kg, 180 min) of the same compound?
**A.** The concentration SYS, Mean was 24 ng/mL.

**Q.** And the concentration PV, individual [2, 12]?
**A.** The concentration PV, individual was 22.1 ng/mL and 21.1 ng/mL.

**Q.** What about the concentration SYS, individual [2, 12] of the same compound?
**A.** The concentration SYS, individual was 23.7 ng/mL and 25.3 ng/mL and 23 ng/mL.
